In patent US20220117940A1, “COMPOSITION FOR INCREASING PREGNANCY RATE OF RUMINANTS AND PREPARATION METHOD AND APPLICATION THEREOF” (CHINA AGRICULTURAL UNIVERSITY, priority 2020, published 2022):
Marks after values point to notes of the source that are not given here.

Assays:
[1] = system: Holstein cows; assay: Serum reproductive hormone levels after melatonin injection in cows exposed to ovsynch TAI; format: in vivo; details: mean ± standard error; for P (progesterone) levels: pregnant cows, Day 30 of pregnancy; for P (progesterone) levels / E2 (estradiol) levels / LH levels: P<0.05; for E2 (estradiol) levels / LH levels / FSH levels: serum; for E2 (estradiol) levels / LH levels: 8 hours after injection of GnRH plus melatonin; for FSH levels: after melatonin with last dose of GnRH, no significant change (P>0.05)
Source text: The process is substantially same as that of Example 2, except that blood was collected at each stage from ovsynch TAI to pregnancy tests, in order to determine the changes in relevant reproductive hormones in ovulating cows.

[2] = system: Holstein cows exposed to TAI; assay: Pregnancy and calving rates of cows exposed to ovsynch TAI with melatonin injection; format: in vivo
Procedure: A melatonin injection of 2-3 mL was injected in combination with the injection of GnRH of ovsynch TAI in cows (as shown in FIG. 1), with B-scan pregnancy tests on Days 32-35, or pregnancy tests by recto-vaginal technique on Day 60. The pregnancy rates were calculated.
2 mL of the injection prepared in Example 1 was administrated together with the last injection of GnRH to multipara Holstein cows (1-3 pregnancies) exposed to postpartum ovsynch TAI. In this process, a randomized administration approach was used, for example administer to every other cow in which the first cow was administrated, the second was not administrated, the third was administrated, and so on.
(§1) 50 to 60 days after the insemination, the pregnancy tests were performed on the Holstein cows by means of rectal examination. Alternatively, 32 days after the insemination, the pregnancy rates were calculated by means of B-scan ultrasonography and pregnancy detection kits.

[3] = system: Holstein cows exposed to natural ovulation; assay: Pregnancy and calving rates of cows exposed to natural ovulation with melatonin injection; format: in vivo
Procedure: as §1

[4] = system: cows exposed to TAI or natural ovulation; assay: Pregnancy and calving rates of first insemination in cows (TAI or natural ovulation) with melatonin injection; format: in vivo, Holstein cows
Procedure: as §1

[5] = system: mouse; details: 5 mg/kg injected before the MT1 receptor peak; cited from earlier work
[6] = Serum MT concentration after melatonin injection in cows exposed to ovsynch TAI (liquid chromatography); details: melatonin injected with last dose of GnRH, PG-PG-GnRH-PG-GnRH ovsynch TAI, mean ± standard error, P<0.05 vs no melatonin
[7] = first insemination, TAI plus natural ovulation, of 162

MT levels in blood (serum) [6]: 4.35±0.53 | MT levels in blood (serum) ([6]; listed as MT): 4.3465±0.5286
Compound: COc1ccc2[nH]cc(CCNC(C)=O)c2c1 [Melatonin, N-acetyl-5-methoxytryptamine]
P (progesterone) levels [1]: 0.18±0.02 | P (progesterone) levels ([1]; listed as MT): 0.1825±0.0235 | E2 (estradiol) levels [1]: 11.68±0.88 | LH levels [1]: 5.02±0.23 | E2 (estradiol) levels ([1]; listed as MT): 11.678±0.8834 | LH levels ([1]; listed as MT): 5.022±0.2324 | FSH levels [1]: 2.48±0.25 | FSH levels ([1]; listed as MT): 2.482±0.2463 | Pregnancy rate ([2]; TAI, 2 mL of 15 mg/mL injection with last GnRH, P<0.05 vs control): 36.26%^a | Number of pregnant cows ([2]; TAI, 2 mL of 15 mg/mL injection with last GnRH, of 91 cows): 33 | Calving rate ([2]; TAI, P<0.05 vs control): 25.27%^a | Number of calves ([2]; TAI, of 91 cows): 23 | Increase of pregnancy rate relative to control ([2]; multipara cows, ovsynch TAI, 9.68/26.58): more than 36.42% | Increase of pregnancy rate ([2]; preparation comprising melatonin of 15 mg/mL, cows exposed to ovsynch TAI): 11% | Increase of pregnancy rate relative to control ([3]; 14.60/26.25): more than 55.62% | Calving rate ([3]; P<0.05 vs control): 29.58%^A | Pregnancy rate ([3]; P<0.05 vs control): 40.85%^A | Number of calves ([3]; of 71 cows): 21 | Number of pregnant cows ([3]; of 71 cows): 29 | Increase of pregnancy rate relative to control ([4]; TAI or natural ovulation, 11.85/26.42): more than 44.85% | Pregnancy rate of first insemination ([4]; TAI plus natural ovulation, P<0.05 vs control): 38.27%^a | Calving rate ([4]; first insemination, TAI plus natural ovulation, P<0.05 vs control): 27.16%^a | Number of calves [4, 7]: 44 | Number of pregnant cows [4, 7]: 62 | Expression of corpus luteum marker genes Akr1c18 and Cyp11a1 [5]: upregulate | Level of progesterone in mouse serum [5]: significantly increase
